Where two headings read alike, the source gives them in different places.
How the values were obtained:
[1] = molecular target: T1, hSULT2A1 (Homo sapiens, UniProt Q06520); assay: Kinetics of inhibition of hSULT2A1-catalyzed sulfation of [3H]DHEA by OHPCBs; type: biochemical; conditions: for type of inhibition with respect to DHEA (best-fit kinetic model): fixed PAPS, varied DHEA and inhibitor, model chosen by R2 and AICc; for β value of partial noncompetitive inhibition equation: signifies formation of DHEA-sulfate in the presence of the inhibitor
T1 sequence (Q06520 1-285): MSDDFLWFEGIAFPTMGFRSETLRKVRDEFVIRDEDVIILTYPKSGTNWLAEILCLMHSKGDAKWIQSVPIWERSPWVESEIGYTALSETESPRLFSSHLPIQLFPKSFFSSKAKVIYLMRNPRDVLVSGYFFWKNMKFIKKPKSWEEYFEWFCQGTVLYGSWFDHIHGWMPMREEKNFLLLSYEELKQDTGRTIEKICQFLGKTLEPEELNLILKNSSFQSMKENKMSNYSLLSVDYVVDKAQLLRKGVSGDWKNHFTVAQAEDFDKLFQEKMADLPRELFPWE

[2] = molecular target: T1, hSULT2A1; assay: Ligand binding to free hSULT2A1 by ANS fluorescence displacement; conditions: for difference in the multiphasic binding pattern in the presence or absence of either DHEA or PAP: with or without DHEA or PAP
[3] = molecular target: T1, hSULT2A1; conditions: cited from earlier work
[4] = molecular target: T2, hSULT2A1 E-PAP complex (Homo sapiens, UniProt Q06520); assay: Ligand binding to the hSULT2A1-PAP complex by ANS fluorescence displacement
T2 sequence (Q06520 1-285): T1 sequence (Q06520 1-285)

| SMILES | Ki [1] [µM] | Kd [2] [µM] | substrate for hSULT2A1-catalyzed sulfation [3] | binding pattern to hSULT2A1 (ANS displacement) ([2]; free enzyme) | type of inhibition with respect to DHEA (best-fit kinetic model) [1] | also measured |
| --- | --- | --- | --- | --- | --- | --- |
| Oc1ccc(-c2ccc(Cl)cc2)cc1O [3’,4’-diOHPCB 3, 3’, 4’-dihydroxy-4-monochlorobiphenyl] | 32 ± 2.3 | 1.17 ± 1.11 | – | – | – | Kd ([2]; read-out: Kd2, binding to hSULT2A1 in the absence of substrates or products, free enzyme, two-site, nonspecific binding curve): 41.9 ± 74.8 µM |
| Oc1ccc(-c2cccc(Cl)c2Cl)cc1O [3’,4’-diOHPCB 5, 3’, 4’- dihydroxy-2,3-dichlorobiphenyl] | 14 ± 0.8 | – | – | – | – | – |
| Oc1ccc(-c2ccc(Cl)cc2)c(Cl)c1 [4-OHPCB 8, 4-hydroxy-2, 4’-dichlorobiphenyl] | 5 ± 0.4 | – | served as alternate substrates | – | – | – |
| Oc1ccc(-c2cccc(Cl)c2)cc1Cl [4-OHPCB 11, 4-hydroxy-3, 3’-dichlorobiphenyl] | 12 ± 0.9 | – | served as alternate substrates | – | – | – |
| Oc1c(Cl)cc(-c2ccccc2)cc1Cl [4-OHPCB 14, 4-hydroxy-3,5-dichlorobiphenyl] | 13.5 ± 1 | 2.55 ± 0.63 | served as alternate substrates | classical single-site binding characteristics | – | Kd [4]: 2.21 ± 0.5 µM |
| Oc1c(Cl)cc(-c2ccccc2Cl)cc1Cl [4-OHPCB 34, 4-hydroxy-2’, 3,5-trichlorobiphenyl] | 0.8 ± 0.1 | 2.07 ± 0.3 | served as alternate substrates | classical single-site binding characteristics | – | Kd [4]: 3.2 ± 0.31 µM |
| Oc1c(Cl)cc(-c2cccc(Cl)c2)cc1Cl [4-OHPCB 36, 4-hydroxy-3, 3’, 5-trichlorobiphenyl] | 3.4 ± 0.8 | 2.46 ± 0.43 | served as alternate substrates | – | partial competitive inhibition | α value of partial competitive inhibition equation [1]: 4.2 |
| Oc1ccc(-c2ccc(Cl)cc2)cc1 [4’-OHPCB 3, 4’-hydroxy-4-monochlorobiphenyl] | 17 ± 1.5 | 3.48 ± 1.03 | – | – | – | – |
| Oc1ccc(-c2ccccc2Cl)cc1Cl [4’-OHPCB 6, 4’-hydroxy-2, 3’-dichlorobiphenyl] | 5.4 ± 0.2 | – | – | – | noncompetitive | – |
| Oc1ccc(-c2cc(Cl)ccc2Cl)cc1 [4’-OHPCB 9, 4’-hydroxy-2,5-dichlorobiphenyl] | 0.7 ± 0.1 | – | – | multiphasic binding | partial noncompetitive inhibition | β value of partial noncompetitive inhibition equation [1]: 0.11 ± 0.02; difference in the multiphasic binding pattern in the presence or absence of either DHEA or PAP [2]: did not show significant differences |
| Oc1ccc(-c2ccc(Cl)c(Cl)c2)cc1 [4’-OHPCB 12, 4’-hydroxy-3,4-dichlorobiphenyl] | 4 ± 0.3 | – | – | – | – | – |
| Oc1ccc(-c2ccc(Cl)cc2Cl)cc1Cl [4’-OHPCB 25, 4’-hydroxy-2, 3’, 4-trichlorobiphenyl] | 3 ± 0.6 | – | served as alternate substrates | – | partial noncompetitive inhibition | β value of partial noncompetitive inhibition equation [1]: 0.19 ± 0.06 |
| Oc1ccc(-c2ccc(Cl)c(Cl)c2)c(Cl)c1 [4’-OHPCB 33, 4’-hydroxy-2’, 3,4-trichlorobiphenyl] | 3 ± 0.2 | – | served as alternate substrates | multiphasic binding | – | difference in the multiphasic binding pattern in the presence or absence of either DHEA or PAP [2]: did not show significant differences |
| Oc1c(Cl)cc(-c2ccc(Cl)cc2Cl)cc1Cl [4’-OHPCB 68, 4’-hydroxy-2, 3’, 4, 5’-tetrachlorobiphenyl] | 0.6 ± 0.1 | 2.26 ± 0.33 | served as alternate substrates | – | partial noncompetitive inhibition | β value of partial noncompetitive inhibition equation [1]: 0.23 ± 0.07 |
| Oc1ccc(Cl)cc1-c1ccc(Cl)c(Cl)c1 [6’-OHPCB 35, 6’-hydroxy-3, 3’-4 trichlorobiphenyl] | – | – | – | multiphasic behavior | – | Ki ([1]; read-out: Ki, inhibition of the sulfation of DHEA catalyzed by hSULT2A1, nonlinear regression fit to noncompetitive inhibition equation (4-OHPCB 36: competitive inhibition equation), 200 µM PAPS, pH 7.0, 37°C): 9 ± 0.5 µM |

Source: PMC3994546 (Chemico-biological interactions, 2014)
